According to US20260022142A1, “MACROCYCLIC IMMUNOMODULATORS” (Bristol-Myers Squibb Company, priority 2022, published 2026):
Bridge positions count the residues as written; N and C are the ends. Square brackets hold non-standard residues; d marks the D form. Peptide text beside a SMILES is read from it. * marks the point of attachment. Tyr(3,5-F2) = N[C@@H](Cc1cc(F)c(O)c(F)c1)C(=O)O; Phe(4-COOH) = N[C@@H](Cc1ccc(C(=O)O)cc1)C(=O)O; Tyr(3-Cl) = N[C@@H](Cc1ccc(O)c(Cl)c1)C(=O)O; Bip = N[C@@H](Cc1ccc(-c2ccccc2)cc1)C(=O)O; Phe(3-Me) = Cc1cccc(C[C@H](N)C(=O)O)c1; Phe(4-Me) = Cc1ccc(C[C@H](N)C(=O)O)cc1; 3Pal = N[C@@H](Cc1cccnc1)C(=O)O; 4Pal = N[C@@H](Cc1ccncc1)C(=O)O; Cha = N[C@@H](CC1CCCCC1)C(=O)O; Carboxymethyl = O=C(O)C*; Orn = NCCC[C@H](N)C(=O)O; Aun = NCCCCCCCCCCC(=O)O; Dab = NCC[C@H](N)C(=O)O; Dap = NC[C@H](N)C(=O)O; AEEA = NCCOCCOCC(=O)O

Target: T1, PD-1/PD-L1 interaction (PE-labeled human PD-L1-Ig binding to Jurkat cell line over-expressing human PD-1) (Homo sapiens, UniProt Q15116)
T1 construct: expressed in transfected cells; host or cells: Jurkat
T1 sequence (Q15116 25-288): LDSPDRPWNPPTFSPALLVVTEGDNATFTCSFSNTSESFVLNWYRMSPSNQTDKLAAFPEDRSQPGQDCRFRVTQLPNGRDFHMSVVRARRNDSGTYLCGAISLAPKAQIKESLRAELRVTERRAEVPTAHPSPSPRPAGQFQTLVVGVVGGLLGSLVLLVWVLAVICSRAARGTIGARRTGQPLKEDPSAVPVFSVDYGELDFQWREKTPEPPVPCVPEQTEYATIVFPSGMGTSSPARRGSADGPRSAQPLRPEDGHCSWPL
Test: Jurkat-PD-1 Cell Binding High-Content Screening Assay (CBA)
Type: cell-based
Settings: Jurkat cell line over-expressing human PD-1; PE-labeled PD-L1-Ig 20 nM final; read-out: Jurkat hPD1-PDL1 IC50
Outline: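 First, compound is added to PD-1-expressing Jurkat cells in serum-containing DMEM and left 2 h at 37° C. Next, PE-conjugated PD-L1-Ig is introduced at 20 nM final concentration for 1 hour. Finally, cells are fixed in 4% paraformaldehyde with Hoechst 33342, washed and imaged.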

## Cc1cccc(C[C@@H]2NC(=O)[C@H](CC(=O)O)NC(=O)[C@H](Cc3ccc(OCC(=O)O)cc3)NC(=O)[C@H](CN)NC(=O)CSC[C@@H](C(=O)N[C@@H](CCN)C(=O)NCCOCCOCC(=O)NCCCCCCCCCCC(=O)O)NC(=O)[C@H](CCCN)NC(=O)[C@H](C(C)C)NC(=O)[C@H](CC3CCCCC3)NC(=O)[C@H](CCN)NC(=O)[C@@H](CC(C)C)NC(=O)[C@H](CCCN)NC(=O)[C@H](Cc3ccncc3)NC(=O)[C@H](Cc3ccc(-c4ccccc4)cc3)NC(=O)[C@H](Cc3ccc(O)cc3)NC2=O)c1 [Compound 2053] ({CH2CO}-[Dap]Y(Carboxymethyl)D[Phe(3-Me)]Y[Bip][4Pal][Orn][dL][Dab][Cha]V[Orn]C[Dab][AEEA][Aun]-OH; thioether N-14)
  IC50: 6.9 nM

## Cc1ccc(C[C@@H]2NC(=O)[C@H](Cc3ccc(-c4ccccc4)cc3)NC(=O)[C@H](Cc3ccc(O)cc3)NC(=O)[C@H](Cc3cccc(C)c3)NC(=O)[C@H](CC(=O)O)NC(=O)[C@H](Cc3ccc(OCC(=O)O)cc3)NC(=O)[C@H](CN)NC(=O)CSC[C@@H](C(=O)N[C@@H](CCN)C(=O)NCCOCCOCC(=O)NCCCCCCCCCCC(=O)O)NC(=O)[C@H](CCCN)NC(=O)[C@H](C(C)C)NC(=O)[C@H](CC3CCCCC3)NC(=O)[C@H](CCN)NC(=O)[C@@H](CC(C)C)NC(=O)[C@H](CCCN)NC2=O)cc1 [Compound 2054] ({CH2CO}-[Dap]Y(Carboxymethyl)D[Phe(3-Me)]Y[Bip][Phe(4-Me)][Orn][dL][Dab][Cha]V[Orn]C[Dab][AEEA][Aun]-OH; thioether N-14)
  IC50: 12.9 nM

## Cc1cccc(C[C@@H]2NC(=O)[C@H](CC(=O)O)NC(=O)[C@H](Cc3ccc(OCC(=O)O)cc3)NC(=O)[C@H](CN)NC(=O)CSC[C@@H](C(=O)N[C@@H](CCN)C(=O)NCCOCCOCC(=O)NCCCCCCCCCCC(=O)O)NC(=O)[C@H](CCCN)NC(=O)[C@H](C(C)C)NC(=O)[C@H](CC3CCCCC3)NC(=O)[C@H](CCN)NC(=O)[C@@H](CC(C)C)NC(=O)[C@H](CCCN)NC(=O)[C@H](Cc3cccnc3)NC(=O)[C@H](Cc3ccc(-c4ccccc4)cc3)NC(=O)[C@H](Cc3ccc(O)cc3)NC2=O)c1 [Compound 2055] ({CH2CO}-[Dap]Y(Carboxymethyl)D[Phe(3-Me)]Y[Bip][3Pal][Orn][dL][Dab][Cha]V[Orn]C[Dab][AEEA][Aun]-OH; thioether N-14)
  IC50: 7.9 nM

## COc1ccc(C[C@@H]2NC(=O)[C@H](Cc3ccc(-c4ccccc4)cc3)NC(=O)[C@H](Cc3ccc(O)cc3)NC(=O)[C@H](Cc3cccc(C)c3)NC(=O)[C@H](CC(=O)O)NC(=O)[C@H](Cc3ccc(OCC(=O)O)cc3)NC(=O)[C@H](CN)NC(=O)CSC[C@@H](C(=O)N[C@@H](CCN)C(=O)NCCOCCOCC(=O)NCCCCCCCCCCC(=O)O)NC(=O)[C@H](CCCN)NC(=O)[C@H](C(C)C)NC(=O)[C@H](CC3CCCCC3)NC(=O)[C@H](CCN)NC(=O)[C@@H](CC(C)C)NC(=O)[C@H](CCCN)NC2=O)cc1 [Compound 2056] ({CH2CO}-[Dap]Y(Carboxymethyl)D[Phe(3-Me)]Y[Bip]Y(Me)[Orn][dL][Dab][Cha]V[Orn]C[Dab][AEEA][Aun]-OH; thioether N-14)
  IC50: 12.6 nM

## Cc1cccc(C[C@@H]2NC(=O)[C@H](CC(=O)O)NC(=O)[C@H](Cc3ccc(OCC(=O)O)cc3)NC(=O)[C@H](CN)NC(=O)CSC[C@@H](C(=O)N[C@@H](CCN)C(=O)NCCOCCOCC(=O)NCCCCCCCCCCC(=O)O)NC(=O)[C@H](CCCN)NC(=O)[C@H](C(C)C)NC(=O)[C@H](CC3CCCCC3)NC(=O)[C@H](CCN)NC(=O)[C@@H](CC(C)C)NC(=O)[C@H](CCCN)NC(=O)[C@H](Cc3ccc(O)c(Cl)c3)NC(=O)[C@H](Cc3ccc(-c4ccccc4)cc3)NC(=O)[C@H](Cc3ccc(O)cc3)NC2=O)c1 [Compound 2057] ({CH2CO}-[Dap]Y(Carboxymethyl)D[Phe(3-Me)]Y[Bip][Tyr(3-Cl)][Orn][dL][Dab][Cha]V[Orn]C[Dab][AEEA][Aun]-OH; thioether N-14)
  IC50: 8 nM

## Cc1cccc(C[C@@H]2NC(=O)[C@H](CC(=O)O)NC(=O)[C@H](Cc3ccc(OCC(=O)O)cc3)NC(=O)[C@H](CN)NC(=O)CSC[C@@H](C(=O)N[C@@H](CCN)C(=O)NCCOCCOCC(=O)NCCCCCCCCCCC(=O)O)NC(=O)[C@H](CCCN)NC(=O)[C@H](C(C)C)NC(=O)[C@H](CC3CCCCC3)NC(=O)[C@H](CCN)NC(=O)[C@@H](CC(C)C)NC(=O)[C@H](CCCN)NC(=O)[C@H](Cc3cc(F)c(O)c(F)c3)NC(=O)[C@H](Cc3ccc(-c4ccccc4)cc3)NC(=O)[C@H](Cc3ccc(O)cc3)NC2=O)c1 [Compound 2058] ({CH2CO}-[Dap]Y(Carboxymethyl)D[Phe(3-Me)]Y[Bip][Tyr(3,5-F2)][Orn][dL][Dab][Cha]V[Orn]C[Dab][AEEA][Aun]-OH; thioether N-14)
  IC50: 4.7 nM

## Cc1cccc(C[C@@H]2NC(=O)[C@H](CC(=O)O)NC(=O)[C@H](Cc3ccc(OCC(=O)O)cc3)NC(=O)[C@H](CN)NC(=O)CSC[C@@H](C(=O)N[C@@H](CCN)C(=O)NCCOCCOCC(=O)NCCCCCCCCCCC(=O)O)NC(=O)[C@H](CCCN)NC(=O)[C@H](C(C)C)NC(=O)[C@H](CC3CCCCC3)NC(=O)[C@H](CCN)NC(=O)[C@@H](CC(C)C)NC(=O)[C@H](CCCN)NC(=O)[C@H](Cc3ccc(O)cc3)NC(=O)[C@H](Cc3ccc(-c4ccccc4)cc3)NC(=O)[C@H](Cc3ccc(OCC(=O)O)cc3)NC2=O)c1 [Compound 2059] ({CH2CO}-[Dap]Y(Carboxymethyl)D[Phe(3-Me)]Y(Carboxymethyl)[Bip]Y[Orn][dL][Dab][Cha]V[Orn]C[Dab][AEEA][Aun]-OH; thioether N-14)
  IC50: 4 nM

## Cc1cccc(C[C@@H]2NC(=O)[C@H](CC(=O)O)NC(=O)[C@H](Cc3ccc(OCC(=O)O)cc3)NC(=O)[C@H](CN)NC(=O)CSC[C@@H](C(=O)N[C@@H](CCN)C(=O)NCCOCCOCC(=O)NCCCCCCCCCCC(=O)O)NC(=O)[C@H](CCCN)NC(=O)[C@H](C(C)C)NC(=O)[C@H](CC3CCCCC3)NC(=O)[C@H](CCN)NC(=O)[C@@H](CC(C)C)NC(=O)[C@H](CCCN)NC(=O)[C@H](Cc3ccc(O)cc3)NC(=O)[C@H](Cc3ccc(-c4ccccc4)cc3)NC(=O)[C@H](Cc3ccc(C(=O)O)cc3)NC2=O)c1 [Compound 2060] ({CH2CO}-[Dap]Y(Carboxymethyl)D[Phe(3-Me)][Phe(4-COOH)][Bip]Y[Orn][dL][Dab][Cha]V[Orn]C[Dab][AEEA][Aun]-OH; thioether N-14)
  IC50: 4.3 nM

## Cc1cccc(C[C@@H]2NC(=O)[C@H](CC(=O)O)NC(=O)[C@H](Cc3ccc(OCC(=O)O)cc3)NC(=O)[C@H](CN)NC(=O)CSC[C@@H](C(=O)N[C@@H](CCN)C(=O)NCCOCCOCC(=O)NCCCCCCCCCCC(=O)O)NC(=O)[C@H](CCCN)NC(=O)[C@H](C(C)C)NC(=O)[C@H](CC3CCCCC3)NC(=O)[C@H](CCN)NC(=O)[C@@H](CC(C)C)NC(=O)[C@H](CCCN)NC(=O)[C@H](Cc3ccc(OCC(=O)O)cc3)NC(=O)[C@H](Cc3ccc(-c4ccccc4)cc3)NC(=O)[C@H](C(C)C)NC2=O)c1 [Compound 2061] ({CH2CO}-[Dap]Y(Carboxymethyl)D[Phe(3-Me)]V[Bip]Y(Carboxymethyl)[Orn][dL][Dab][Cha]V[Orn]C[Dab][AEEA][Aun]-OH; thioether N-14)
  IC50: 3.9 nM
